Data: patent publication US20100267561A1, “HERBICIDAL PYRIDAZINONE DERIVATIVES” (priority 2007, published 2010)

Legend:
Test in all cases: Test B pre-/postemergence plant response
Assay type in all cases: in vivo
[1] = test system: Italian ryegrass (Lolium multiflorum)
Outline: (§1)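 Seeds were sown and sprayed preemergence, while plants at 2 to 18 cm (1- to 4-leaf stage) got postemergence sprays. Compounds were formulated in a non-phytotoxic solvent mixture with surfactant. After 13 to 15 days in a greenhouse, injury was rated visually against untreated controls, 0 (no effect) to 100 (complete control).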

[2] = test system: bermudagrass (Cynodon dactylon)
Outline: as §1

[3] = test system: blackgrass (Alopecurus myosuroides)
Outline: as §1

[4] = test system: common ragweed (Ambrosia elation)
Outline: as §1

corn (Zea mays) = test system: corn (Zea mays)
Outline: as §1

[5] = test system: eastern black (E.B.) nightshade (Solanum ptycanthum); conditions: Preemergence
Outline: as §1

[6] = test system: giant foxtail (Setaria faberii)
Outline: as §1

[7] = test system: johnsongrass (Sorghum halepense)
Outline: as §1

kochia (Kochia scoparia) = conditions: Postemergence
Outline: as §1

[8] = test system: lambsquarters (Chenopodium album); conditions: Postemergence
Outline: as §1

[9] = test system: morningglory (Ipomoea coccinea)
Outline: as §1

[10] = test system: surinam grass (Brachiaria decumbens)
Outline: as §1

wild oat (Avena fatua) = test system: wild oat (Avena fatua)
Outline: as §1

[11] = test system: yellow nutsedge (Cyperus esculentus)
Outline: as §1

[12] = Postemergence, 31 g ai/ha, scale 0 to 100, 0 no effect, 100 complete control
[13] = Postemergence, 62 g ai/ha, scale 0 to 100
[14] = Postemergence, 125 g ai/ha, scale 0 to 100
[15] = Postemergence, 250 g ai/ha, scale 0 to 100
[16] = Preemergence, 31 g ai/ha, 0 to 100 scale, 0 no effect, 100 complete control
[17] = Preemergence, 62 g ai/ha, scale 0 to 100
[18] = Preemergence, 125 g ai/ha, scale 0 to 100
[19] = Preemergence, 250 g ai/ha, scale 0 to 100
[20] = 250 g ai/ha, preemergence, 0-100 scale
[21] = 31 g ai/ha, scale 0 to 100, 0 no effect, 100 complete control

CCc1cc(-c2ccc(C(F)(F)F)cc2)nn1-c1c(O)c(C)nn(C)c1=O [Compound 16]
Plant response rating, Ryegrass, Italian [1, 12]: 100 | Plant response rating, Ryegrass, Italian [1, 13]: 100 | Plant response rating, Ryegrass, Italian [1, 14]: 100 | Plant response rating, Ryegrass, Italian [1, 15]: 100 | Plant response rating, Ryegrass, Italian [1, 16]: 100 | Plant response rating, Ryegrass, Italian [1, 17]: 100 | Plant response rating, Ryegrass, Italian [1, 18]: 100 | Plant response rating, Ryegrass, Italian [1, 19]: 100 | Bermudagrass plant response rating [2, 20]: 100 | Plant response rating, Bermudagrass [2, 12]: 65 | Plant response rating, Bermudagrass [2, 13]: 100 | Plant response rating, Bermudagrass [2, 14]: 100 | Plant response rating, Bermudagrass [2, 15]: 100 | Plant response rating, Bermudagrass [2, 16]: 0 | Plant response rating, Bermudagrass [2, 17]: 0 | Plant response rating, Bermudagrass [2, 18]: 98 | Blackgrass plant response rating [3, 20]: 100 | Plant response rating, Blackgrass [3, 12]: 98 | Plant response rating, Blackgrass [3, 13]: 100 | Plant response rating, Blackgrass [3, 14]: 100 | Plant response rating, Blackgrass [3, 15]: 100 | Plant response rating, Blackgrass [3, 16]: 100 | Plant response rating, Blackgrass [3, 17]: 100 | Plant response rating, Blackgrass [3, 18]: 100 | Plant response rating, Ragweed [4, 12]: 0 | Plant response rating, Ragweed [4, 13]: 0 | Plant response rating, Ragweed [4, 14]: 0 | Plant response rating, Ragweed [4, 15]: 0 | Plant response rating, Ragweed [4, 16]: 0 | Plant response rating, Ragweed [4, 17]: 0 | Plant response rating, Ragweed [4, 18]: 0 | Plant response rating, Ragweed [4, 19]: 0 | Plant response rating, Corn (corn (Zea mays); [12]): 98 | Plant response rating, Corn (corn (Zea mays); [13]): 98 | Plant response rating, Corn (corn (Zea mays); [14]): 100 | Plant response rating, Corn (corn (Zea mays); [15]): 100 | Plant response rating, Corn (corn (Zea mays); [16]): 0 | Plant response rating, Corn (corn (Zea mays); [17]): 100 | Plant response rating, Corn (corn (Zea mays); [18]): 100 | Plant response rating, Corn (corn (Zea mays); [19]): 100 | Plant response rating, Nightshade, E. B. ([5]; 31 g ai/ha, 0 to 100 scale, 0 no effect, 100 complete control): 0 | Plant response rating, Nightshade, E. B. ([5]; 62 g ai/ha, scale 0 to 100): 0 | Plant response rating, Nightshade, E. B. ([5]; 125 g ai/ha, scale 0 to 100): 0 | Plant response rating, Nightshade, E. B. ([5]; 250 g ai/ha, scale 0 to 100): 0 | Plant response rating, Foxtail, Giant [6, 12]: 85 | Plant response rating, Foxtail, Giant [6, 13]: 98 | Plant response rating, Foxtail, Giant [6, 14]: 100 | Plant response rating, Foxtail, Giant [6, 15]: 100 | Plant response rating, Foxtail, Giant [6, 16]: 0 | Plant response rating, Foxtail, Giant [6, 17]: 0 | Plant response rating, Foxtail, Giant [6, 18]: 40 | Plant response rating, Foxtail, Giant [6, 19]: 70 | Plant response rating, Johnsongrass [7, 12]: 98 | Plant response rating, Johnsongrass [7, 13]: 100 | Plant response rating, Johnsongrass [7, 14]: 100 | Plant response rating, Johnsongrass [7, 15]: 100 | Plant response rating, Johnsongrass [7, 16]: 25 | Plant response rating, Johnsongrass [7, 17]: 70 | Plant response rating, Johnsongrass [7, 18]: 100 | Plant response rating, Johnsongrass [7, 19]: 100 | Plant response rating, Kochia (kochia (Kochia scoparia); [21]): 0 | Plant response rating, Kochia (kochia (Kochia scoparia); 62 g ai/ha, scale 0 to 100): 65 | Plant response rating, Kochia (kochia (Kochia scoparia); 125 g ai/ha, scale 0 to 100): 98 | Plant response rating, Kochia (kochia (Kochia scoparia); 250 g ai/ha, scale 0 to 100): 100 | Plant response rating, Lambsquarters [8, 21]: 0 | Plant response rating, Lambsquarters ([8]; 62 g ai/ha, scale 0 to 100): 0 | Plant response rating, Lambsquarters ([8]; 125 g ai/ha, scale 0 to 100): 0 | Plant response rating, Lambsquarters ([8]; 250 g ai/ha, scale 0 to 100): 0 | Plant response rating, Morningglory [9, 12]: 0 | Plant response rating, Morningglory [9, 13]: 0 | Plant response rating, Morningglory [9, 14]: 0 | Plant response rating, Morningglory [9, 15]: 0 | Plant response rating, Morningglory [9, 16]: 0 | Plant response rating, Morningglory [9, 17]: 0 | Plant response rating, Morningglory [9, 18]: 0 | Plant response rating, Morningglory [9, 19]: 0 | Plant response rating, Surinam Grass [10, 12]: 90 | Plant response rating, Surinam Grass [10, 13]: 100 | Plant response rating, Surinam Grass [10, 14]: 100 | Plant response rating, Surinam Grass [10, 15]: 100 | Plant response rating, Surinam Grass [10, 16]: 45 | Plant response rating, Surinam Grass [10, 17]: 55 | Plant response rating, Surinam Grass [10, 18]: 95 | Plant response rating, Surinam Grass [10, 19]: 100 | Plant response rating, Oat, Wild (wild oat (Avena fatua); [12]): 95 | Plant response rating, Oat, Wild (wild oat (Avena fatua); [13]): 100 | Plant response rating, Oat, Wild (wild oat (Avena fatua); [14]): 100 | Plant response rating, Oat, Wild (wild oat (Avena fatua); [15]): 100 | Plant response rating, Oat, Wild (wild oat (Avena fatua); [16]): 90 | Plant response rating, Oat, Wild (wild oat (Avena fatua); [17]): 95 | Plant response rating, Oat, Wild (wild oat (Avena fatua); [18]): 98 | Plant response rating, Oat, Wild (wild oat (Avena fatua); [19]): 100 | Plant response rating, Nutsedge, Yellow [11, 12]: 0 | Plant response rating, Nutsedge, Yellow [11, 13]: 0 | Plant response rating, Nutsedge, Yellow [11, 14]: 0 | Plant response rating, Nutsedge, Yellow [11, 15]: 0 | Plant response rating, Nutsedge, Yellow [11, 16]: 0 | Plant response rating, Nutsedge, Yellow [11, 17]: 0 | Plant response rating, Nutsedge, Yellow [11, 18]: 0 | Plant response rating, Nutsedge, Yellow [11, 19]: 20
